Tested on: bacteria grown on agar
Test: Determination of bacterial inhibition - agar diffusion test of primer formulations
Assay type: cell-based
Conditions: for zone of inhibition at 5 % strength: 5% by weight of compound; for zone of inhibition at 10 % strength: 10% by weight of compound
Description: A test adapted from a commonly used method for determining the sensitivity of a bacterial strain to antibiotics in solution, known as Kirby-Bauer antibiotic testing or disc diffusion antibiotic sensitivity testing was used (Brown D F, Kothari D (1975), “Comparison of antibiotic discs from different sources”, J. Clin. Pathol. 28 (10): 779-83. Doi: 10.1136 /jcp.28.10.779). The test performed involves the use of discs imbued with a known concentration of the substance under examination that are placed on a layer of bacteria grown on agar. The diffusion of the bactericidal molecule from the disk into the agar causes the inhibition of bacterial growth in the area surrounding the disk itself where the molecule has spread with the formation of what are called zones of growth inhibition. The diameter of these inhibition zones (transparent circular regions in comparison to the bacterial film) is proportional to the antibacterial efficacy of the molecule to its concentration and to its diffusion ability in the medium.
The bactericidal properties of the compounds according to Examples 1, 3, 5, 6 and 7 were tested in various primer-type preparations, using the method “Bacterial inhibition determination-Agar diffusion test” described above. The disk soaked in the tested primer formulation without addition of compounds according to Examples 1, 3, 5, 6 and 7 was used as a negative reference.
For the tests, the following primer-type formulations were used, identified by the following codes: […]

[1] = primer L1B, 1% by weight of compound
[2] = primer L3, 1% by weight of compound
[3] = primer PaA, 1% by weight of compound

SMILES: C=C(C)C(=O)OCC[N+](C)(C)CCCCCCCCCCCC[N+](C)(C)CCOC(=O)C(=C)C.[Br-].[Br-] [Example 1]
- zone of inhibition at 1 % strength (primer L1A, 1% by weight of compound): 15 mm
- zone of inhibition at 5 % strength (primer L1A): 20 mm
- zone of inhibition at 10 % strength (primer L1A): 25 mm
- zone of inhibition at 1 % strength [1]: 5 mm
- zone of inhibition at 5 % strength (primer L1B): 15 mm
- zone of inhibition at 10 % strength (primer L1B): 19 mm
- zone of inhibition at 1 % strength (primer L1C, 1% by weight of compound): 10 mm
- zone of inhibition at 5 % strength (primer L1C): 15 mm
- zone of inhibition at 10 % strength (primer L1C): 20 mm

SMILES: C=C(C)C(=O)NCc1cc[n+](CCCCCCCCCCCC[n+]2ccc(CNC(=O)C(=C)C)cc2)cc1.[Br-].[Br-] [Example 7]
- zone of inhibition at 1 % strength [1]: 17 mm
- zone of inhibition at 1 % strength [2]: 14 mm
- zone of inhibition at 1 % strength [3]: 13 mm

SMILES: C=C(C)C(=O)OCC[N+](CC)(CC)CCCCCCCCCCCC[N+](CC)(CC)CCOC(=O)C(=C)C.[Br-].[Br-] [Example 5]
- zone of inhibition at 1 % strength [1]: 14 mm
- zone of inhibition at 1 % strength [2]: 13 mm
- zone of inhibition at 1 % strength [3]: 12 mm

SMILES: C=C(C)C(=O)Nc1ccc([N+](C)(C)CCCCCCCCCCCC[N+](C)(C)c2ccc(NC(=O)C(C)=O)cc2)cc1.[Br-].[Br-] [Example 6]
- zone of inhibition at 1 % strength [1]: 14 mm
- zone of inhibition at 1 % strength [2]: 15 mm
- zone of inhibition at 1 % strength [3]: 15 mm
